Reference: patent US20230381349A1, “METHODS AND COMPOSITIONS FOR IMAGING AND TREATING CANCER” (WASHINGTON UNIVERSITY, priority 2020, published 2023)

Legend:
[1] = tested on: KI cells; assay: In vitro cytotoxicity (WST-1 cell viability) assay; type: cell-based; settings: Mus musculus, 72 h, 3 days continuous drug treatment
Protocol: All cells were cultured at 37° C., 5% C02, and 95% humidity.
The KI Cells were seeded into 96-well plates at a density of 5000 cells per well. 24 hrs later, the medium was replaced by fresh medium containing TA-PEG-Gem and Gem at the indicated concentration (range, 0-500 μM), respectively. All experimental incubation conditions were performed at least in triplicate. Cell viability was determined after 3 days of continuous drug treatment using the WST-1 cell cytotoxicity assay (Roche, Basel, Switzerland) following the manufacturer's instruction. Briefly, 10 μl WST-1 reagent was added in each well followed by additional incubation for 4 h. The absorbance at 440 nm was measured using a microplate reader. IC50 was calculated using GraphPad Prism 7.03 software (GraphPad Software, San Diego, CA).

[2] = tested on: KI tumor; assay: Treatment efficacy in KI xenograft model; type: in vivo, mouse; settings: for median survival: KI mice
Protocol: A KI xenograft model was used to monitor tumor growth trends and treatment efficacy of CuNPs-ECL1i-Gem. 10 days after tumor implantation, mice were randomized into 5 groups (n=5/group): (1) CuNPs-ECL1i-Gem (Cu mass: 10 mg/kg body weight, Gem: 3.4±0.8 mg/kg body weight, I.V. injection, twice per week); (2) CuNPs-ECL1i (same CuNPs-NT dose as (1), I.V. injection, twice per week); (3) gemcitabine 7 mg/kg body weight (I.V. injection, twice per week); (4) gemcitabine 100 mg/kg body weight (I. P. injection, once per week); (5) saline (100 μL, I.V. injection, twice per week). For the 2nd treatment study, the mice started dose administration at 7 days post implantation. The dose regimens of CuNPs-NT-Gem and CuNPs-ECL1i-Gem were the same as the 1st treatment study. The Cu mass was limited to a dosage of 10 mg/kg for all nanoparticle groups, and the relative loaded gemcitabine dose was 3.4±0.8 mg/kg body weight. […] Tumor volume was calculated as (length×width2)/2. The treatment was continued for 6 successive weeks or until the mice died or were sacrificed and deemed as dead when their tumor volume reached over 2000 mm^3. After treatment, the tumors were collected for H&E staining.

Nc1ccn([C@@H]2O[C@H](CO)[C@@H](O)C2(F)F)c(=O)n1 [Gem, gemcitabine]
IC50 [1]: 19.7 µM
median survival ([2]; start day 10, high dose 100 mg/kg I.P. once per week): 26 days
median survival ([2]; start day 10, low dose 7 mg/kg I.V. twice per week): 25 days
tumor growth effect compared to saline ([2]; start day 10, high dose 100 mg/kg I.P.): did not show any treatment benefit
tumor growth effect compared to saline ([2]; start day 10, low dose 7 mg/kg I.V.): did not show any treatment benefit
